pIC50: −log10 of the molar value. Several values for one entry are separate records, joined by “and”; a condition that tells them apart may be missing. Equal entries are not always repeated. Where two headings read alike, the source gives them in different places. One block for each compound: values may come before it.
Columns and labels:
caspase 9 = target: T1, caspase 9 (Homo sapiens, UniProt P55211); experiment: Caspase inhibition assay, Ac-LEHD-AFC substrate; format: biochemical
T1 sequence (P55211 1-315 limits assumed): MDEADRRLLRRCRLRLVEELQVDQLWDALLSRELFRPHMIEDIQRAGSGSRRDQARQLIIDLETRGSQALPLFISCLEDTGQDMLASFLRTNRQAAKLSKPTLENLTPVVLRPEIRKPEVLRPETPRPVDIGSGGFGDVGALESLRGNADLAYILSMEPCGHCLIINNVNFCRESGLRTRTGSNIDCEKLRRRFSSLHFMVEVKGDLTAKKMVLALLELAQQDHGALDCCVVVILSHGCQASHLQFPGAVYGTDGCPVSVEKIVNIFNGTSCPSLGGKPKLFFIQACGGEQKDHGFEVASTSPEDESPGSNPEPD
T1 sequence (P55211 331-416 limits assumed): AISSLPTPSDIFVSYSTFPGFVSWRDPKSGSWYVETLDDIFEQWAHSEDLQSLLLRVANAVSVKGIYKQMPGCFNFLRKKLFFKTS
Description: (§1) The determination of the IC50/μm was performed according to Gary Johnson, 9401 James Avenue, Suite No. 155, Bloomington, Minn. 55431.
(§2) Caspase Inhibition Assay:—Caspases are diluted in caspase buffer, 0.1 M HEPES, 10% sucrose 0.1% CHAPS and 10 mM DTT, pH 7.5. Caspases 1, 3, and 8 are used at a concentration of 144 U/well and caspase 9 is used at 4.8 U/well in a 96 well fluorometric plate.
(§3) Inhibitors are initially dissolved in DMSO at 10 mg/ml and further dilutions can be prepared in caspase buffer. The inhibitors are generally tested at concentrations ranging from 50 uM to 0.005 uM. These are usually prepared as 2 fold or 2.5 fold decreasing dilutions. The enzyme approximately 144 U in 120 ul caspase buffer is added to 380 ul caspase buffer containing the appropriate concentration on the inhibitor and incubated on ice for 15 min. The reactants 200 ul are then added to a black fluorimetric plate and incubated in the fluorometer at 37° C. for 30 min.
(§4) During the incubation period appropriate coumarin substrates are prepared by dilution in DMSO and caspase buffer to provide a 0.417 mM working stock. AcYVAD-AFC is used for caspase 1, AcDEVD-AFC for caspase 3. AcIETD-AFC for caspase 8 and Ac-LEHD-AFC for capsase 9. Twenty five microliters of the stock solution are added to 200 ul of the caspase and inhibitor test solutions to give a final substrate concentration of 0.046 mM.
(§5) The fluorometer is set to 400 nm excitation and 505 nm emission. The enzyme-inhibitor-substrate is allowed to incubate at for an additional twenty min. and the response is read as fluorescence units vs inhibitor concentration. The responses are plotted as percent of the maximum response (response in the absence of inhibitor) for each concentration of the inhibitor. The inhibitory activity for each inhibitor is described as the concentration of inhibitor that produces a 50% inhibition of the maximum response (IC50).

caspase 8 = caspase 8 (Homo sapiens, UniProt Q14790); experiment: Caspase inhibition assay, AcIETD-AFC substrate; format: biochemical
Sequence of caspase 8 (Q14790 217-374 limits assumed, species assumed): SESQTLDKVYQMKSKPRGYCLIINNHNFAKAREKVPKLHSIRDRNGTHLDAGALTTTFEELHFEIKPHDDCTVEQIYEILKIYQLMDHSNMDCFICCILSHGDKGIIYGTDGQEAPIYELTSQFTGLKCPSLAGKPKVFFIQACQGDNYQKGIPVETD
Sequence of caspase 8 (Q14790 385-479 limits assumed, species assumed): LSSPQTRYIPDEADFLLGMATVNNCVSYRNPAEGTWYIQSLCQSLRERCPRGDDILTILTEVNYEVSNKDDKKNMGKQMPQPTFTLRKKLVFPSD
Description: as §1, §2, §3
During the incubation period appropriate coumarin substrates are prepared by dilution in DMSO and caspase buffer to provide a 0.417 mM working stock. AcYVAD-AFC is used for caspase 1, AcDEVD-AFC for caspase 3. […]
The fluorometer is set to 400 nm excitation and 505 nm emission. The enzyme-inhibitor-substrate is allowed to incubate at for an additional twenty min. and the response is read as fluorescence units vs inhibitor concentration. […]

caspase 3 = target: T2, caspase 3 (Homo sapiens, UniProt P42574); experiment: Caspase inhibition assay, AcDEVD-AFC substrate; format: biochemical
T2 sequence (P42574 29-175 limits assumed): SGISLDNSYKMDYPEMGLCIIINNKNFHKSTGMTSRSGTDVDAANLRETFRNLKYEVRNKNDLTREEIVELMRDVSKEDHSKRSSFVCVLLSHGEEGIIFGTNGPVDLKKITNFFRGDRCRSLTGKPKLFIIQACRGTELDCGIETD
T2 sequence (P42574 176-277 limits assumed): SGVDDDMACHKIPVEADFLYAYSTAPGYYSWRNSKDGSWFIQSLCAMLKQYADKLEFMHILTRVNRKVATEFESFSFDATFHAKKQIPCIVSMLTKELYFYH
Description: as §1, §2, §3, §4, §5

caspase 1 = target: T3, caspase 1 (Homo sapiens, UniProt P29466); experiment: Caspase inhibition assay, AcYVAD-AFC substrate; format: biochemical
T3 sequence (P29466 120-297 limits assumed): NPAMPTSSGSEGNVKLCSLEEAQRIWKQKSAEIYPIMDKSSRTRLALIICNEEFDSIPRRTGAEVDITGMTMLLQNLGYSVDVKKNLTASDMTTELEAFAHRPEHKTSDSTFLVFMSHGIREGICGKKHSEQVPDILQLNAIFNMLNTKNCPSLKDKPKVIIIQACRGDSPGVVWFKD
T3 sequence (P29466 317-404 limits assumed): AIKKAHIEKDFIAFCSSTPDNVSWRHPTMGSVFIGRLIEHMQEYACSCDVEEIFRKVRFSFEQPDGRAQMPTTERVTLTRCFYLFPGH
Description: as §1, §2, §3, §4, §5

[1] = from figure, antilog of log concentration, read-out: IC50 caspase 3
[2] = from figure, antilog of log concentration, read-out: IC50 caspase 1
[3] = esterase treated inhibitor, read-out: IC50 caspase 1

pIC50 (caspase 9; from figure, antilog of log concentration): ~5.26 | pIC50 (caspase 8; Table 5, read-out: CASP-8 IC50): 5.23 | pIC50 (caspase 8; from figure, read-out: IC50 caspase 8): ~5.24 | pIC50 (caspase 3; Table 5, read-out: CASP-3 IC50): 5.91 | pIC50 (caspase 3; [1]): ~5.91 and ~6.01 | pIC50 (caspase 1; Table 5, read-out: CASP-1 IC50): 5.82 | pIC50 (caspase 1; [2]): ~5.84
Compound: COC(=O)CC(NC(=O)C(NC(=O)c1ccc2ccccc2n1)C(C)C)C(=O)COc1cc(N)ccc1C(=O)O (stereo not drawn) [Q-VD(OMe)-ASA, Quinoline-(2-Carbonyl)-Val-Asp(OMe)-α-(2-oxy-Amino Salicylic Acid)]

pIC50 (caspase 3; Table 5, read-out: CASP-3 IC50): > 4.60
Compound: COC(=O)CC(NC(=O)C(NC(=O)c1ccc2ccccc2n1)C(C)C)C(=O)COc1ccc(CCNC(=O)OC(C)(C)C)cc1O (stereo not drawn) [Q-VD(OMe)-DOPA-BOC]

pIC50 (caspase 3; Table 5, read-out: CASP-3 IC50): 6.30 | pIC50 (caspase 1; Table 5, read-out: CASP-1 IC50): 5.84 | pIC50 (caspase 1; [2]): ~5.84
Compound: COC(=O)CC(NC(=O)C(NC(=O)c1ccc2ccccc2n1)C(C)C)C(=O)COc1ccccc1C(=O)O (stereo not drawn) [Q-VD(OMe)-SA, Quinoline-(2-Carbonyl)-Val-Asp(OMe)—CH—O-Salicylic Acid]

pIC50 (caspase 3; Table 5, read-out: CASP-3 IC50): 6.60
Compound: COC(=O)C[C@H](NC(=O)[C@@H](NC(=O)c1ccc2ccccc2n1)C(C)C)C(=O)COC1=C(c2ccccc2)C(=O)OC1 [Q-VD(OMe)-Tetronic Acid, Quinoline-(2-Carbonyl)-Val-Asp(OMe)—CH2-2-Phenyltetronic Acid]

Compound: COC(=O)C[C@H](NC(=O)[C@H](C)NC(=O)[C@@H](NC(=O)c1ccc2ccccc2n1)C(C)C)C(=O)CF [QVAD(OMe)FMK, Quinoline-(C═O)Val-Ala-Asp(OMe)-Fluoromethyl Ketone]
concentration vs. >90% cell survival: 100 µM

pIC50 (caspase 9; esterase treated inhibitor): ~7.15 | pIC50 (caspase 9; non-esterase treated inhibitor): ~7.19 | pIC50 (caspase 3; esterase treated inhibitor, read-out: IC50 caspase 3): ~7.51 | pIC50 (caspase 3; non-esterase treated inhibitor, read-out: IC50 caspase 3): 7.35 | pIC50 (caspase 1; [3]): ~7.40
Compound: COC(=O)CC(NC(=O)C(CC(C)C)NC(=O)c1ccc2ccccc2n1)C(=O)CF [quinoline-(2-carbonyl)-L-D(OMe)—CH2-FMK]

pIC50 (caspase 3; [1]): ~7.30 | pIC50 (caspase 1; [2]): ~6.26
Compound: CC(C)C[C@H](NC(=O)c1ccc2ccccc2n1)C(=O)N[C@@H](CC(=O)O)C(=O)COc1ccccc1 [quinoline-(2-carbonyl)-L-D-CH2—OPh]

pIC50 (caspase 9; esterase treated inhibitor): 7.60 | pIC50 (caspase 9; non-esterase treated inhibitor): ~7.54 | pIC50 (caspase 1; [3]): ~7.17
Compound: COC(=O)CC(NC(=O)C(NC(=O)c1ccc2ccccc2n1)C(C)C)C(=O)CF [quinoline-(2-carbonyl)-V-D(OMe)—CH2-FMK, Quinoline-(2-Carbonyl)-V-D-(OMe)-α-CH2F (the Fluoromethyl Ketone)]

pIC50 (caspase 3; Table 5, read-out: CASP-3 IC50): 5.70
Compound: Quinoline-(2-Carbonyl)-Val-Asp(OMe)-α-(3-oxy-Dopamine) [Q-VD(OMe)-DOPA.TFA]

Source: patent US20020052323A1, “Quinoline-(C=O)-(multiple amino acids)-leaving group compounds for pharmaceutical compositions and reagents” (priority 2000, published 2002)
